Measurements: BindingDB's records for doi:10.3109/14756366.2011.637200 (Kirklareli University, 2013)

Assays:
Assay in all cases: CA Inhibition Assay
Settings in all cases: pH 7.5; 25 °C
Carbonic anhydrase 6 = Carbonic anhydrase 6 (Homo sapiens, UniProt P23280)
Carbonic anhydrase 2 = Carbonic anhydrase 2 (Homo sapiens, UniProt P00918)
Carbonic anhydrase 1 = Carbonic anhydrase 1 (Homo sapiens, UniProt P00915)
Sequence of Carbonic anhydrase 1 (P00915 whole entry): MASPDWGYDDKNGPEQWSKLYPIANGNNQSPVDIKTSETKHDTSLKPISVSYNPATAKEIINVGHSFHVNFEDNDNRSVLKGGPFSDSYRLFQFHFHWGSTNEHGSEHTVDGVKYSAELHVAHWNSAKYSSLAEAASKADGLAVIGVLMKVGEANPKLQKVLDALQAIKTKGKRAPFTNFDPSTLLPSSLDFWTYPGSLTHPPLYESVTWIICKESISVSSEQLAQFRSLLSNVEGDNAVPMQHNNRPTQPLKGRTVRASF

Sequence of Carbonic anhydrase 6 (P23280 whole entry): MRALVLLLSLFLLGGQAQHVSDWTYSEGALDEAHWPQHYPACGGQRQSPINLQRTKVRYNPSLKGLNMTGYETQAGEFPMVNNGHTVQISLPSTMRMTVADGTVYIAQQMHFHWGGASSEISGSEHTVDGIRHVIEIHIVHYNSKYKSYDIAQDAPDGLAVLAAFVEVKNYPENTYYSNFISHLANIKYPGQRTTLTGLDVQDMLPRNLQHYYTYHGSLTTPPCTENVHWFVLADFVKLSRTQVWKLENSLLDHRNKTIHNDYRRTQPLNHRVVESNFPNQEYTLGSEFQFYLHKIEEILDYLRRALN

Molecule `Cc1c(CCO)sc[n+]1C` [CA inhibitor, 1] has a Ki (Carbonic anhydrase 6) of 593 nM, a Ki (Carbonic anhydrase 2) of 784 nM and a Ki (Carbonic anhydrase 1) of 2270 nM.
Molecule `Cc1c(CCO)sc[n+]1Cc1ccccc1` [CA inhibitor, 2] has a Ki (Carbonic anhydrase 6) of 128 nM, a Ki (Carbonic anhydrase 2) of 105 nM and a Ki (Carbonic anhydrase 1) of 1150 nM.
Work on `Cc1ncc(C[n+]2csc(CCO)c2C)c(N)n1` [Vitamin B 1] yielded a Ki (Carbonic anhydrase 6) of 62 nM, a Ki (Carbonic anhydrase 2) of 85 nM and a Ki (Carbonic anhydrase 1) of 380 nM.
